From patent publication US10174013B2, “Benzimidazole derivatives as kinase inhibitors” (SELVITA S.A., priority 2012, dated 2019)
Counter-ions that a name gives are not always drawn. Like-named read-outs stand apart in the source and are kept apart here.

Assays:
CYP3A4 = CYP3A4 (Homo sapiens (Human), UniProt P08684); experiment: Cytochrome P450 inhibition, fluorescence, CYP3A4; format: in vitro ADME; conditions: recombinant CYP3A4, fluorescence detection; read-out: CYP inhibition (CYP 3A4 screening, IC50 class)
Chain of CYP3A4 (P08684 whole entry, canonical isoform): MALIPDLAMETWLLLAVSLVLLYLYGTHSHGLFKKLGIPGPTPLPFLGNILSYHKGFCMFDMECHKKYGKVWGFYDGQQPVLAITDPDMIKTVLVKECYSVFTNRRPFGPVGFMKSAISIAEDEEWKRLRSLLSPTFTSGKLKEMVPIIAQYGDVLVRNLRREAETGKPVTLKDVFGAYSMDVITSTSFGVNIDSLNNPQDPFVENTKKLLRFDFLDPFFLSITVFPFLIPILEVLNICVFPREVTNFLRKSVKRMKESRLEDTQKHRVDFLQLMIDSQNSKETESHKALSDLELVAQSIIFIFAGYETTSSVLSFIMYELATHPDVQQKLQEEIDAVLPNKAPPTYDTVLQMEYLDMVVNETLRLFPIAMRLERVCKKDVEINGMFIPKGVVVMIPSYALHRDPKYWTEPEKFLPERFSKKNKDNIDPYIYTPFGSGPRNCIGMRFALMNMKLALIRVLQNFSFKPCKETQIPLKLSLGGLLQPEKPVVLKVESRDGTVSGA
Experimental: The assays for cytochrome P450 inhibition facilitate the identification of drug candidates with lower potential for drug-drug interactions (weak enzymes inhibitors). In vitro experiments were conducted to determine whether a drug inhibits a specific CYP enzyme. The experiments comprised the incubation of the drug with probe substrates for the CYP enzymes, wherein the following recombinant cytochrome P450 isoforms were employed: CYP1A2, CYP2C8, CYP2C9, CYP2C19, CYP2D6 and CYP3A4, together with various probe substrates enabling fluorescence detection. The protocol uses a single substrate concentration near the apparent Km and multiple compound concentrations.
The assay was performed in 96-well microtiter plates. The row designations were A through H and the column designations were 1 through 12. […] Each compound (see Table 6 for tested compounds) was added to the wells in column 1 and serially diluted to the wells in column 8. Wells 9 and 10 were control wells which contained no test compound (therefore no inhibition-full signal is detected.) The wells in columns 11 and 12 were blanks, where STOP solution was added prior to the addition of the enzyme/substrate mix to the NADPH regenerating system (the only signal present in these wells is background noise.) The assay was conducted in a final volume of 0.2 ml per well.
The stock solutions of the tested compounds were prepared in DMSO at 10 mM concentration. […] After mixing the compounds with solution containing NADPH-cofactors, the mixed plate was preincubated in a 37° C. incubator for at least 10 minutes; next, the fluorescence of compounds using recommended excitation/emission filters was measured in order to eliminate false results originating from autofluorescence of the compounds. In the following step, the enzyme/substrate mix was added to columns 1 through 10 and the plates were incubated at 37° C. for specific times depending on the CYP tested (incubation times ranged from 30 to 45 minutes). After adding STOP SOLUTION to all wells and respective enzyme/substrate mix to the wells in columns 11 and 12, the plate was scanned with a fluorescent plate scanner. The excitation/emission filters used for the specific assays are described in the GenTest Screening Kit instruction manual.

HEL92 cells = experiment: Growth inhibition, MTS assay, HEL92; format: cell-based, Human; conditions: MTS cell viability, read-out: HEL92 ED50
Pim-1 = Pim-1 (Homo sapiens (Human), UniProt P11309); experiment: ADP-Glo Kinase Assay, Pim-1; format: biochemical; conditions: 1 μM compound; for inhibition at 1 µM: read-out: Pim-1 % INH (1 μM)
Chain of Pim-1 (P11309 whole entry): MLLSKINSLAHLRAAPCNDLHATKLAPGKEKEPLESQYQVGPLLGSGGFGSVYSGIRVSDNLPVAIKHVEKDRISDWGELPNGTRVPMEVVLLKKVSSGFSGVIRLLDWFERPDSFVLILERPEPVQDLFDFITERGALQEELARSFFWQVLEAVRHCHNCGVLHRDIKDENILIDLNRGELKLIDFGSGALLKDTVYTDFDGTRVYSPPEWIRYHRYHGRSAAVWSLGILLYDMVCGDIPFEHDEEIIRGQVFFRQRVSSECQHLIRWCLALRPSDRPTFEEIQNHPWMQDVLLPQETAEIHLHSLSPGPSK
In short: (§1)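 Buffer was MOPS 5 mM (pH 7.5) with MgCl2, EDTA and DTT; ATP set at apparent Km per kinase. Compounds were diluted in assay buffer to 1000 nM. Kinase-generated ADP was converted to luciferase signal and normalised to percent inhibition.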

MV4-11 cells = experiment: Growth inhibition, MTS assay, MV4-11; format: cell-based, Human; conditions: MTS cell viability, read-out: MV4-11 ED50
Jeko-1 cells = experiment: Growth inhibition, MTS assay, Jeko-1; format: cell-based, Human; conditions: Homo sapiens, JeKo-1; 72 hours, MTS cell viability; read-out: Jeko-1 ED50
SW-480 cells = experiment: Growth inhibition, MTS assay, SW-480; format: cell-based, Human; conditions: Homo sapiens, SW480; 72 hours, MTS cell viability; read-out: SW-480 ED50
Pim-2 = Pim-2 (Homo sapiens (Human), UniProt Q9P1W9); experiment: ADP-Glo Kinase Assay, Pim-2; format: biochemical; conditions: 1 μM compound; for inhibition at 1 µM: read-out: Pim-2 % INH (1 μM)
Chain of Pim-2 (Q9P1W9 whole entry): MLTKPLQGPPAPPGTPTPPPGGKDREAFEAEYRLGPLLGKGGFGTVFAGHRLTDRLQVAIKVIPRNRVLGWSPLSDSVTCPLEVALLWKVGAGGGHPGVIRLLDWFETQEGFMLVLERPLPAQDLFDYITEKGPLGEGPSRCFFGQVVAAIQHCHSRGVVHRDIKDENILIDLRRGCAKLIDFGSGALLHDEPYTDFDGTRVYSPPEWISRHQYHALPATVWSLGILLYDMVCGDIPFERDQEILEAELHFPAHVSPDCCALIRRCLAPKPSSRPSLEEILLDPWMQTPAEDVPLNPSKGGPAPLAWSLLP
In short: as §1

FLT3wt = FLT3wt (Homo sapiens (Human), UniProt P36888); experiment: ADP-Glo Kinase Assay, Flt3 wt; format: biochemical; conditions: 1 μM compound; for inhibition at 1 µM: read-out: Flt3wt % INH (1 μM)
Chain of FLT3wt (P36888 27-993): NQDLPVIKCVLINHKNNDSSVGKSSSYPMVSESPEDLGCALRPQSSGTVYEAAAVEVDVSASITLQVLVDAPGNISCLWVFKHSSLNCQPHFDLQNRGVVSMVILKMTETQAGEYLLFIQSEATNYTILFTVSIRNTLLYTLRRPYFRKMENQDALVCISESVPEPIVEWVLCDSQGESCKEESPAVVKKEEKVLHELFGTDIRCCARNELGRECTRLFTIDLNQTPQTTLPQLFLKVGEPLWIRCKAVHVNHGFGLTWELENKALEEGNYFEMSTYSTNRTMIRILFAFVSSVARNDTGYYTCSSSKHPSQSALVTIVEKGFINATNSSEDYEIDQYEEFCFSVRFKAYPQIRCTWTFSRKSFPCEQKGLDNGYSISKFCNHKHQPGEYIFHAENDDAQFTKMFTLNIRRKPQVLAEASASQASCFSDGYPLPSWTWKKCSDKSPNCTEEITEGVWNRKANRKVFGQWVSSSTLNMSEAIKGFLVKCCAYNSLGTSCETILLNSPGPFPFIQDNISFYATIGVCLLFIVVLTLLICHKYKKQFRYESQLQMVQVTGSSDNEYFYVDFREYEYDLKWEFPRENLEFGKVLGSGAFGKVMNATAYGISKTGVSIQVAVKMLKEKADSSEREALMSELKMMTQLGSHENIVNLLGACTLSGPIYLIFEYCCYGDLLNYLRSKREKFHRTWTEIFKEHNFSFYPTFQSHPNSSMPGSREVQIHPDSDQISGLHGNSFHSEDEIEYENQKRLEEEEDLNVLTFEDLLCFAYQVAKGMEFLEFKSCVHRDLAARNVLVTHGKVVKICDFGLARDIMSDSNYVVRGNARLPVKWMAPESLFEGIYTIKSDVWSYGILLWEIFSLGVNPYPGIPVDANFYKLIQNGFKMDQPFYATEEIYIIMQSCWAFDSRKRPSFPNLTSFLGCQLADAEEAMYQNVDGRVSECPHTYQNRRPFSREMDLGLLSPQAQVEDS
In short: as §1

CDK2/E = CDK2/E (Homo sapiens (Human), UniProt P24941); experiment: ADP-Glo Kinase Assay, CDK2/E; format: biochemical; conditions: 1 μM compound; for inhibition at 1 µM: read-out: CDK2/E % INH (1 μM)
In short: as §1

HepG2 cells = experiment: Growth inhibition, MTS assay, HepG2; format: cell-based, Human; conditions: MTS cell viability, read-out: HepG2 ED50
Pim-3 = Pim-3 (Homo sapiens (Human), UniProt Q86V86); experiment: ADP-Glo Kinase Assay, Pim-3; format: biochemical; conditions: 1 μM compound; for inhibition at 1 µM: read-out: Pim-3 % INH (1 μM)
In short: as §1

DYRK1 = DYRK1 (Homo sapiens (Human), UniProt Q13627); experiment: ADP-Glo Kinase Assay, DYRK1; format: biochemical; conditions: 1 μM compound; for inhibition at 1 µM: read-out: DYRK1A % INH (1 μM)
In short: as §1

MOLM16 cells = experiment: Growth inhibition, MTS assay, MOLM16; format: cell-based, Human; conditions: MTS cell viability, read-out: MOLM 16 ED50
Text: The following cell lines, were obtained and used in tests as outlined below: • Human myelomonocytic, biphenotypic leukemia MV4-11 cells (harboring a Flt3-ITD mutation); • Human Acute Myeloid Leukemia MOLM16 cells; • Human Acute Myeloid Leukemia MOLM13 cells (harboring a Flt3-ITD mutation); • Human Myeloid Leukemia KG-1 cells; • Human erythroleukemia HEL92 cells; • Human mantle cell lymphoma Jeko-1 cells; • Human hepatocellular carcinoma HepG2 cells; and • Human colon adenocarcinoma SW-480 cells.
The assays were carried out according to the following protocol, which is described as an example for the MV4-11 cells:
Ten thousand MV4-11 cells were inoculated into each well of a 96-well microplate (manufactured by Corning Corp.) using Iscove's MDM medium (culture medium) containing 10% fetal calf serum (FCS). The same day, a dimethyl sulfoxide (DMSO) solution of each test compound prepared in a concentration of 10 mmol/L was further diluted with DMSO to the desired concentrations (0.1, 0.5, 1, 2.5, 5 and 10 micromol/L), and the diluted solution was added to each well. The individual wells were further cultured in 5% carbon dioxide at 37° C. for 72 hours. […] Briefly, 10 μl MTS (3-(4,5-Dimethyl-2-thiazolyl)-5-(carboxymethoxyphenyl)-2-(4-sulfophenyl)-2H-tetrazolium was added to each well, and culturing was performed in 5% carbon dioxide at 37° C. for 2 hours. After this incubation and using a microplate spectrophotometer (Synergy 2 multi-mode microplate reader (BioTek)), the absorbance of each well was measured at 490 nm. The value for cells not incubated with a test compound was designated as 100%. By comparing these values with the absorbance difference obtained at the well in which each test compound was added, the cell viability (% viability) after treatment with the test compound was calculated.

| SMILES | IC50 (CYP3A4) | inhibition at 1 µM (Pim-1) | IC50 (MV4-11 cells; Homo sapiens, MV4-11, 72 h) | inhibition at 1 µM (Pim-2) | inhibition at 1 µM (FLT3wt) | inhibition at 1 µM (CDK2/E) | IC50 (HepG2 cells; Homo sapiens, HepG2, 72 h) | inhibition at 1 µM (Pim-3) | inhibition at 1 µM (DYRK1) | IC50 (MV4-11 cells; 72 hours) | Flt3wt % INH (1 μM) (FLT3wt) | IC50 (HEL92 cells; Homo sapiens, 72 h) | other results |
| --- | --- | --- | --- | --- | --- | --- | --- | --- | --- | --- | --- | --- | --- |
| CCn1c(NC2CCNC2)nc2c([N+](=O)[O-])c(Br)c(Br)cc21 (stereo not drawn) [Example 1AF] | > 10 µM | > 95% | 1.2 µM | 23% | < 5% | < 5% | 1.8 µM | 71% | 47% |  |  | 8.5 µM | IC50 (Jeko-1 cells): 2.3 µM; IC50 (SW-480 cells): 5.2 µM |
| CCn1c(NC2CCC(N)CC2)nc2c([N+](=O)[O-])c(Br)c(Br)cc21 (stereo not drawn) [Example 1DU] |  |  |  |  |  |  |  |  |  | 1.0 µM | 12% | 5.5 µM | Pim-1 % INH (1 μM) (Pim-1): >95%; IC50 (MOLM16 cells; Homo sapiens, MOLM16, 72 h): 0.9 µM; CDK2/E % INH (1 μM) (CDK2/E): 53%; IC50 (HepG2 cells; 72 hours): 1.3 µM; DYRK1A % INH (1 μM) (DYRK1): 39% |
| CC(C)n1c(NC2CCNC2)nc2c(C#N)c(Br)c(Br)cc21 (stereo not drawn) [Example 1BH] | > 10 µM | 83% |  |  |  | < 5% | 5.6 µM |  |  | 4.6 µM | <5% |  | Pim-2 % INH (1 μM) (Pim-2): 13%; Pim-3 % INH (1 μM) (Pim-3): 60%; DYRK1A % INH (1 μM) (DYRK1): 22% |
| CC(C)n1c(N2CCOC(CN)C2)nc2c(C#N)c(Br)c(Br)cc21 (stereo not drawn) [Example 1BM] | 1.1 to 3.3 µM | > 95% | 4.9 µM |  | < 5% | < 5% | 4.5 µM | 62% |  |  |  |  |  |
| NCCCNc1nc2c([N+](=O)[O-])c(Br)c(Br)cc2n1C1CCCC1 [Example 2H, N-(3-aminopropyl)-5,6-dibromo-1-cyclopentyl-4-nitro-1H-1,3-benzodiazol-2-amine hydrochloride] | 3.3 to 10 µM | > 95% | 2 µM | 56% | < 5% | < 5% | 1.5 µM | > 95% | 62% |  |  | 6.8 µM | IC50 (SW-480 cells): 1.4 µM |
| NCCCNc1nc2c([N+](=O)[O-])c(Br)c(Br)cc2[nH]1 [Example 1D] | > 10 µM | > 95% | 5.9 µM | 41% | < 5% | 21% | 6.2 µM | 57% | 16% |  |  | 8.2 µM | IC50 (SW-480 cells): 6.2 µM |
| CC(C)n1c(NC2CCC(N)CC2)nc2c([N+](=O)[O-])c(Br)c(Br)cc21 (stereo not drawn) [Example 1BC] | 3.3 to 10 µM | 79% | 3.2 µM | 16% |  |  |  | 46% | 14% |  | <5% | 7.9 µM | IC50 (Jeko-1 cells): 3 µM; CDK2/E % INH (1 μM) (CDK2/E): <5% |

Further lines, with some results ahead:

| IC50 (CYP3A4) | inhibition at 1 µM (Pim-1) | IC50 (MV4-11 cells; Homo sapiens, MV4-11, 72 h) | inhibition at 1 µM (Pim-2) | inhibition at 1 µM (FLT3wt) | inhibition at 1 µM (CDK2/E) | IC50 (HepG2 cells; Homo sapiens, HepG2, 72 h) | inhibition at 1 µM (Pim-3) | inhibition at 1 µM (DYRK1) | IC50 (MV4-11 cells; 72 hours) | Flt3wt % INH (1 μM) (FLT3wt) | SMILES | IC50 (HEL92 cells; Homo sapiens, 72 h) | other results |
| --- | --- | --- | --- | --- | --- | --- | --- | --- | --- | --- | --- | --- | --- |
|  |  |  |  |  |  |  |  |  | 0.1 µM | 55% | CC(C)n1c(C2CCCC(N)C2)nc2c([N+](=O)[O-])c(Br)c(Br)cc21 (single isomer, unassigned) [Example 26C, 3-[5,6-dibromo-4-nitro-1-(propan-2-yl)-1H-1,3-benzodiazol-2-yl]cyclohexan-1-amine] |  | IC50 (HEL92 cells; 72 hours): 3.0 µM; Pim-1 % INH (1 μM) (Pim-1): >95%; IC50 (MOLM16 cells; 72 hours): 0.2 µM; CDK2/E % INH (1 μM) (CDK2/E): 55% |
| > 10 µM | > 95% | 5.4 µM | 28% | < 5% | < 5% |  | 84% | 20% |  |  | CC(C)n1c(N2CCC[C@H](O)C2)nc2c([N+](=O)[O-])c(Br)c(Br)cc21 [Example 22I, (3S)-1-[5,6-dibromo-4-nitro-1-(propan-2-yl)-1H-1,3-benzodiazol-2-yl]piperidin-3-ol] |  |  |
|  | > 95% | 0.8 µM |  | 38% | 36% |  |  |  |  |  | CC(C)n1c(C2CCC(N)CC2)nc2c([N+](=O)[O-])c(Br)c(Br)cc21 (stereo not drawn) [Example 26D, 4-[5,6-dibromo-4-nitro-1-(propan-2-yl)-1H-1,3-benzodiazol-2-yl]cyclohexan-1-amine] | 9.7 µM | IC50 (MOLM16 cells; Homo sapiens, MOLM16, 72 h): 1 µM |
| > 10 µM | > 95% | 4.8 µM | 47% | 13% | 5% |  | 87% |  |  |  | CC(C)n1c(N2CCCC(O)C2)nc2c([N+](=O)[O-])c(Br)c(Br)cc21 (stereo not drawn) [Example 22G, 1-[5,6-dibromo-4-nitro-1-(propan-2-yl)-1H-1,3-benzodiazol-2-yl]piperidin-3-] |  |  |
|  | > 95% |  |  | 43% | 36% |  |  |  | 0.4 µM |  | CC(C)n1c(C2CCCC(N)C2)nc2c([N+](=O)[O-])c(Br)c(Br)cc21 (single isomer, unassigned) [Example 26B, 3-[5,6-dibromo-4-nitro-1-(propan-2-yl)-1H-1,3-benzodiazol-2-yl]cyclohexan-1-amine] |  | IC50 (HEL92 cells; 72 hours): 6.1 µM; IC50 (MOLM16 cells; Homo sapiens, MOLM16, 72 h): 0.1 µM |
| 3.3 to 10 µM | > 95% | 0.2 µM | 75% | 89% | 60% | 1.3 µM | > 95% | > 95% |  |  | CCC(C)n1c(N2CCNCC2)nc2c([N+](=O)[O-])c(Br)c(Br)cc21 (stereo not drawn) [Example 2I, 5,6-dibromo-1-(butan-2-yl)-4-nitro-2-(piperazin-1-yl)-1H-1,3-benzodiazole hydrochloride] | 0.8 µM |  |
